The target in one experiment is B-Raf (Homo sapiens, UniProt P15056). The experiment can be described thus: B-Raf Accelerated MEK ATPase assay (BRAMA), Method A or B. It is filed as biochemical. The settings on record: Method B: final MEK 150 nM, single end point read. As for the experimental part:
Compounds of the present invention were tested for B-Raf protein serine kinase inhibitory activity in a B-Raf Accelerated MEK ATPase assay (BRAMA). The BRAMA assay is a high sensitivity assay which measures an intrinsic MEK-mediated ATP hydrolysis uncoupled from downstream ERK phosphorylation by coupling the formation of ADP to NADH oxidation through the enzymes pyruvate kinase and lactate dehydrogenase. When ADP production is initiated by addition of catalytic amounts of an activated Raf enzyme and non-phosphorylated MEK, one observes robust ADP production concomitant with Raf-mediated phosphorylation of MEK.
Method A: Specific details of the assay are disclosed in: C. Rominger, M. Schaber, E. May. Assay for B-Raf Activity Based on Intrinsic MEK ATPase Activity. Statutory Invention Registration 11/084,993 (March, 2005). Method B: The method is the same as method A, but includes the following changes: 1) the assay was performed with a final MEK concentration of 150 nM and 2) the assay was read as single end point instead of a kinetic read.

Another experiment deals with SK-MEL-28 tumor cells. The experiment can be described thus: Cell growth inhibition assay (CellTiter-Glo), SK-MEL-28. It is filed as cell-based, Human. The settings on record: Homo sapiens, SK-MEL-28, 72 h; 3 days incubation. As for the experimental part: (§1) Human breast tumor cells (BT474) were cultured in RPMI (Mediatech […]), containing 10% FBS (JRH Biosciences 12176) and 1% penicillin-streptomycin (Invitrogen 15140). Human head and neck tumor cells (HN5) were cultured in high glucose DMEM (Mediatech 50-013-PB) containing 10% FBS and 1% penicillin-streptomycin. Human colon tumor cells (Colo205) were cultured in RPMI (Mediatech 50-020-PB) containing 10% FBS and 1% penicillin-streptomycin. Human melanoma cancer cells (SK-MEL-28) were cultured in EMEM with nonessential amino acids (Mediatech 50-011-PB) containing 10% FBS, 1% sodium pyruvate (JT Baker 3354-04), and 1% penicillin-streptomycin. Human melanoma cancer cells (A375P F11s) were cultured in RPMI (Mediatech 50-020-PB) containing 10% FBS, 1% sodium pyruvate, and 1% penicillin-streptomycin. Human colon cancer cells (HT-29) were cultured in high glucose DMEM (Mediatech 50-013-PB) containing 10% FBS and 1% penicillin-streptomycin. Human melanoma cancer cells (SK-MEL-3) were cultured in McCoy's 5A (50-025-PB) containing 15% FBS, and 1% penicillin-streptomycin. All cell lines were maintained at 37° C. in a humidified 5% CO2, 95% air incubator. Cells were harvested using trypsin/EDTA (Invitrogen 25200), counted using a haemocytometer, and plated. For 96-well assays (using white full-area NUNC plates cat. #136102), cells were plated in 105 μL at the following densities (cells/well): HNS, 500; Colo 205, 500; SK-MEL-28, 500; A375P F11s, 500; HT-29, 500; SK-MEL-3, 500; and BT474, 3000. For 384-well assays (white full-area NUNC plates, cat. #781080), cells were plated in 48 μL at the following densities (cells/well): HNS, 500; Colo205, 500; SK-MEL-28, 500; A375P F11s, 500; HT-29, 500; SK-MEL-3, 500; and BT474, 2000.
(§2) The next day, compounds were diluted as follow: For 96-well assays, 13.5 μL of compound in DMSO were diluted using nine (9) serial 1:3 dilutions of 4.5 μL in 9 of DMSO. Medium (270 μL/well of RPMI with 10% FBS and 1% penicillin-streptomycin) was added to the plates. Aliquots (7 μL) were added to cells in the final assay giving a final DMSO concentration of 0.2%. For 384-well assays, 15 μL of compound in DMSO were diluted using nine (9) serial 1:3 dilutions of 5 μL in 10 μL of DMSO, followed by a further dilution of 5 μL of compound with 95 μL of medium, of which 2 μL were added to cells in the final assay giving a final DMSO concentration of 0.2%. Cells were incubated at 37° C., 5% CO2 for 3 days.
(§3) Total ATP was measured (as a surrogate estimate of cell number) using CellTiter-Glo® reagent (Promega G7571). Briefly, plates were removed from the incubator and allowed to equilibrate to room temperature for 30 minutes. CellTiter-Glo® (25 μL or 55 μL for 384-well or 96-well assays, respectively) reagent was added to each well and plates were shaken on an orbital plate shaker for 2 minutes. Plates were incubated without shaking for a further 30 minutes and read on an LJL Analyst GT reader in luminometer mode with an integration time of 0.5 seconds per well. Percent inhibition of cell growth was calculated relative to DMSO vehicle-treated control wells. Concentration of compound required to give 50% inhibition of vehicle-treated control cell growth (IC50) was interpolated using a 4-parameter fit for determining IC50 using the following equation: Y=A +((B−A)/(1+((C/X)̂D))) where […].
Background: In ATP-based viability assays light output follows the ATP content of the culture.

The target in another experiment is T1, ErbB2 (Homo sapiens, UniProt P04626).
T1 construct: made in house; host or cells: baculovirus expression system
The experiment can be described thus: ErbB-2 substrate phosphorylation assay (HTRF). The class given is biochemical. Here is the method: (§4) Compounds of the present invention were tested for EGFR and ErbB-2 protein tyrosine kinase inhibitory activity in substrate phosphorylation assays using enzymes purified from a baculovirus expression system. Reagent production was conducted essentially as described in Brignola, P. S., et al, (2002) J. Biol. Chem. 277(2):1576-1585.
(§5) The method measures the ability of the isolated enzyme to catalyse the transfer of the gamma-phosphate from ATP onto the tyrosine residue of a biotinylated synthetic peptide referenced “Peptide C” in Brignola, P. S., et al, (2002) J. Biol. Chem. 277(2):1576-1585. The extent of tyrosine phosphorylation was measured using an anti-phosphotyrosine antibody, and quantified by homogenous time-resolved fluorescence (HTRF).
(§6) Reactions were performed in black 384-well polystyrene flat-bottom plates in a final volume of 20 μL. Assays were performed by adding 10 μL of each of the following solutions, Substrate Mix and Enzyme Mix: The Substrate Mix contained 100 mM 3-[N-morpholino]propanesulfonic acid (MOPS) (pH 7.5), 2 mM MnCl2, 20 μM ATP, 0.01% Tween-20, 0.1 mg/mL (BSA), 0.8 uM peptide substrate, and 1 mM dithiothreitol. The Enzyme Mix contained 100 mM MOPS (pH7.5); 0.01% Tween-20; 0.1 mg/mL BSA, and either 0.8 nM EGFR, 10 nM ErbB2, or 1 nM ErbB4. The Enzyme Mix was added to the compound plates and the plates were incubated at 20° C. for 1 hr. The reactions were then started by adding the Substrate Mix.
(§7) After initiating the reaction with the method described above, the reactions were allowed to proceed for 90 minutes at 20° C. The reactions were then terminated by the addition of 20 μL 100 mM EDTA to each well. 40 μL/well of HTRF detection mix were added to the assay plates. The final concentrations of the detection reagents were: 100 mM HEPES (pH7.5), 0.1 mg/mL BSA, 15 nM streptavidin-labeled allophycocyanin (PerkinElmer), and 1 nM europium-labeled anti-phosphotyrosine antibody (Perkin Elmer). Assay plates were left unsealed and were counted in a Wallac Multilabel Counter 1420 (PerkinElmer).
(§8) Compounds under analysis were dissolved in dimethylsulfoxide (DMSO) to 1.0 mM and serially diluted 1 to 3 with DMSO through twelve dilutions. 1 μL of each concentration was transferred to the corresponding well of an assay plate. This creates a final compound concentration range from 0.00027 to 47.6 μM.
(§9) The data for dose responses were plotted as % Inhibition calculated with the data reduction formula 100*(1-(U1−C2)/(C1−C2)) versus concentration of compound where U1 is the unknown value, C1 is the average control value obtained for 4.76% DMSO, and C2 is the average control value obtained for 0.035 M EDTA. Data were fitted with a curve described by:
(§10) where Vmax is the upper asymptote, Y2 is the Y intercept, and K is the IC50. The results for each compound were recorded as pIC50s, calculated as follows: […]
Background: TR-FRET usually uses a lanthanide donor and a delayed reading to cut background.

In another experiment the target is T2, EGFR (Homo sapiens, UniProt P00533).
T2 construct: made in house; host or cells: baculovirus expression system
The experiment in a line: EGFR substrate phosphorylation assay (HTRF). It is filed as biochemical. As for the experimental part: as §4, §5, §6, §7, §8, §9, §10

The next experiment has as its system Colo205 tumor cells. The experiment can be described thus: Cell growth inhibition assay (CellTiter-Glo), Colo205. The class given is cell-based, Human. The following applies: Homo sapiens, COLO 205, 72 h; 3 days incubation. Here is the method:
as §1, §2, §3

pIC50: −log10 of the molar value. Bounds are passed on as bounds.

T2 sequence (P00533 25-1210): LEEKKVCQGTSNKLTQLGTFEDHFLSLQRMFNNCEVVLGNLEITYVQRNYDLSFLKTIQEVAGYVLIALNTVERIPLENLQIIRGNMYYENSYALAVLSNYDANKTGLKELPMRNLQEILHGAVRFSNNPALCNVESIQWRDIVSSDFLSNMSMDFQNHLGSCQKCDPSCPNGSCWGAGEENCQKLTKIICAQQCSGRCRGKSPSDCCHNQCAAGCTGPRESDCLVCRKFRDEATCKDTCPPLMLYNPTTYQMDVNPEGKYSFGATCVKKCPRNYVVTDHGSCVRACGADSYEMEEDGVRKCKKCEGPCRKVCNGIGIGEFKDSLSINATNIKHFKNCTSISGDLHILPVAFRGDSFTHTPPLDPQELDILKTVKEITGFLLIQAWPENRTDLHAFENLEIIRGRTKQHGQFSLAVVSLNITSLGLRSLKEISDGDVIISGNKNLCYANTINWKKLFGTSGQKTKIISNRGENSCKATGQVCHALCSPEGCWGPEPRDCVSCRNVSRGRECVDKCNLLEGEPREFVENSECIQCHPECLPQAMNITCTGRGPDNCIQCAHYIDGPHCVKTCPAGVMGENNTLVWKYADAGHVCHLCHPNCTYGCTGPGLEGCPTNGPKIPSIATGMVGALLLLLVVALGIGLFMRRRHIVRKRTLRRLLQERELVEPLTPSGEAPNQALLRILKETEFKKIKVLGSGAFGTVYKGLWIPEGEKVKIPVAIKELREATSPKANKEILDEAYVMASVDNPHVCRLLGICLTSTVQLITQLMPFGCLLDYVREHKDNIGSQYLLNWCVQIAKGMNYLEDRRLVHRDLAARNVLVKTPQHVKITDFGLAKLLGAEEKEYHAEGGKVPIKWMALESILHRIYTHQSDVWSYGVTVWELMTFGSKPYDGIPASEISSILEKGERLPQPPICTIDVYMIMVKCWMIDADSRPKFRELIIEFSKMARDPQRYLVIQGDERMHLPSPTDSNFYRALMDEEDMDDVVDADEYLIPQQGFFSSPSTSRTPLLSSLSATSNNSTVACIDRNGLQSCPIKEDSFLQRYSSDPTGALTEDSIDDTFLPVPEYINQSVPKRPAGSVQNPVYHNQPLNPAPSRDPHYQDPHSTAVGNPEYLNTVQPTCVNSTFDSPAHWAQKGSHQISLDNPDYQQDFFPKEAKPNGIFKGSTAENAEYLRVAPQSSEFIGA
T1 sequence (P04626 23-1255): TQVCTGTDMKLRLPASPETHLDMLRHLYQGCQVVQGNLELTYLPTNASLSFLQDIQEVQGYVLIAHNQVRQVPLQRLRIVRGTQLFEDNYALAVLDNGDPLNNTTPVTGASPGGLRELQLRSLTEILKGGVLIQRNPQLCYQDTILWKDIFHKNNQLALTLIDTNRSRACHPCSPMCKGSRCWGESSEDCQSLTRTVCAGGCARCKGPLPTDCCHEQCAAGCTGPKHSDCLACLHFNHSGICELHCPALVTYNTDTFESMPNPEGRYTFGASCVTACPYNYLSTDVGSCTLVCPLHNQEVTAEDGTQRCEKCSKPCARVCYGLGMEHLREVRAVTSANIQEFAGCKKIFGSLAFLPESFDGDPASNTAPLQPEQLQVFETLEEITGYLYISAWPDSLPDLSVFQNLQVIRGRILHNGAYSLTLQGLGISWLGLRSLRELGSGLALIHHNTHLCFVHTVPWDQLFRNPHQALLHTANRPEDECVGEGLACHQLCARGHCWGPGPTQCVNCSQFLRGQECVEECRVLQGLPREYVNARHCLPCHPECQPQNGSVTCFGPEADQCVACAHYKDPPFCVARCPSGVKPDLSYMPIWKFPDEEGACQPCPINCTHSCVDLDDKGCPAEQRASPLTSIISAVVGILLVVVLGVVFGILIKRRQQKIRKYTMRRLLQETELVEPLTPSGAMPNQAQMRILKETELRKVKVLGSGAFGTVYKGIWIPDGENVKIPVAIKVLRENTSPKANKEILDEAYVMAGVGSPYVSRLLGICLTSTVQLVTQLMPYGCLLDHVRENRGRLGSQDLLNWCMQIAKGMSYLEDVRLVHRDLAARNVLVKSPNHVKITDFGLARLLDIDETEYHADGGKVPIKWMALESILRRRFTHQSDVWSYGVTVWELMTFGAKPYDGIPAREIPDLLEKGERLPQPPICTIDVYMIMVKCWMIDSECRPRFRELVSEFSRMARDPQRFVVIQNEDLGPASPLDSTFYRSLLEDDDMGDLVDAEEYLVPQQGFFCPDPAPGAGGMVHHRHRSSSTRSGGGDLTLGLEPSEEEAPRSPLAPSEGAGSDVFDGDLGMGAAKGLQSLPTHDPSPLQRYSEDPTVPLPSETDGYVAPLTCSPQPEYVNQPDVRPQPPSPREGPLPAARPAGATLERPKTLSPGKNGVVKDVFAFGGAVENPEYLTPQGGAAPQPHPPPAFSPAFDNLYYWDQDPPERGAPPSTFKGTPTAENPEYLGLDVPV
Chain of B-Raf (P15056 whole entry): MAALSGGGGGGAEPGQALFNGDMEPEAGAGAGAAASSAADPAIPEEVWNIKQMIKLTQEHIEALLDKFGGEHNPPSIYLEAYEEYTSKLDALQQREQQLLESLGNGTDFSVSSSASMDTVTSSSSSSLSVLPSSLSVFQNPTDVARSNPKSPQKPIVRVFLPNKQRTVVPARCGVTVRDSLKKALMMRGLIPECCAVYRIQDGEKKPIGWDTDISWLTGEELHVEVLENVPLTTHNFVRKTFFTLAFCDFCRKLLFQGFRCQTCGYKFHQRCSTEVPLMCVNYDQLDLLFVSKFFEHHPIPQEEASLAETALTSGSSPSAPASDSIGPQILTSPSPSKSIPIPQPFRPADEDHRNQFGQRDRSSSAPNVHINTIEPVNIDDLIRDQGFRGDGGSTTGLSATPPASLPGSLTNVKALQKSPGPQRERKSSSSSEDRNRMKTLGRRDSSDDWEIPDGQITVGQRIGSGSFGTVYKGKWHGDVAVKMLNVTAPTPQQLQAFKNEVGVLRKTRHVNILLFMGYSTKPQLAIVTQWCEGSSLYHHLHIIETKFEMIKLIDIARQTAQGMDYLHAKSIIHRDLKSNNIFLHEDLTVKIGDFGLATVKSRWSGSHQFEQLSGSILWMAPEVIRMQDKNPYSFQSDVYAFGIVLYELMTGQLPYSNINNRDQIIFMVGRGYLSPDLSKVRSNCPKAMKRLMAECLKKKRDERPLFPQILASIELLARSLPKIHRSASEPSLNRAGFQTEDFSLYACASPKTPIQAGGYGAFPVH

In the case of `CC(C)c1nc(-c2ccc(F)c(NS(=O)(=O)c3c(F)cccc3F)c2)c(-c2ccnc(Nc3ccc(N4CCN(CCS(C)(=O)=O)CC4)c(F)c3)n2)o1` [Example 61], the pIC50 against B-Raf is > 7.00; in the experiment with SK-MEL-28 tumor cells it was 6.00 to 7.00; on ErbB2 it was 6.00 to 7.00; on EGFR, < 6.00; in the experiment with Colo205 tumor cells it was 6.00 to 7.00.

As to `CC(C)c1nc(-c2cccc(NS(=O)(=O)c3cccc(OC(F)F)c3)c2)c(-c2ccnc(Nc3ccc(N4CCOCC4)nc3)n2)s1` [Example 141], the pIC50 at B-Raf is 6.00 to 7.00; in the experiment with SK-MEL-28 tumor cells, 6.00 to 7.00; on ErbB2, 6.00 to 7.00; on EGFR, < 6.00; in the experiment with Colo205 tumor cells, 6.00 to 7.00.

Take `CCc1nc(-c2ccc(F)c(NS(=O)(=O)c3ccccc3)c2)c(-c2ccnc(Nc3ccc(N4CCN(CCS(C)(=O)=O)CC4)c(F)c3)n2)s1` [Example 67]: the pIC50 on B-Raf is 6.00 to 7.00; with SK-MEL-28 tumor cells, 6.00 to 7.00; against ErbB2, 6.00 to 7.00; on EGFR, < 6.00; in the experiment with Colo205 tumor cells it was 6.00 to 7.00.

As for `COc1cc(N2CCN(CCS(C)(=O)=O)CC2)c(C)cc1Nc1nccc(-c2oc(N3CCCC3)nc2-c2cccc(NS(=O)(=O)c3c(F)cccc3F)c2)n1` [Example 136], the pIC50 at B-Raf, in the experiment with SK-MEL-28 tumor cells, against ErbB2, against EGFR and in the experiment on Colo205 tumor cells was 6.00 to 7.00 throughout.

On to `COc1cc(N2CCN(CCS(C)(=O)=O)CC2)c(C)cc1Nc1nccc(-c2sc(C(C)C)nc2-c2cccc(NS(=O)(=O)c3ccco3)c2)n1` [Example 55], for which the pIC50 against B-Raf is > 7.00; in the experiment with SK-MEL-28 tumor cells, 6.00 to 7.00; against ErbB2, > 7.00; against EGFR, > 7.00; in the experiment on Colo205 tumor cells, > 7.00.

As to `COc1cc(N2CCN(CCS(C)(=O)=O)CC2)c(C)cc1Nc1nccc(-c2sc(CC(C)C)nc2-c2cccc(NS(=O)(=O)c3c(F)cccc3F)c2)n1` [Example 161], the pIC50 at B-Raf is 6.00 to 7.00; in the experiment on SK-MEL-28 tumor cells it was 6.00 to 7.00; against ErbB2 it was > 7.00; at EGFR it was > 7.00; in the experiment with Colo205 tumor cells, > 7.00.

For `COc1cc(N2CCN(CCS(C)(=O)=O)CC2)c(C)cc1Nc1nccc(-c2sc(C(C)C)nc2-c2cccc(NS(=O)(=O)c3cccnc3)c2)n1` [Example 54], the pIC50 is > 7.00 at B-Raf; > 7.00 in the experiment with SK-MEL-28 tumor cells; > 7.00 on ErbB2; 6.00 to 7.00 against EGFR; > 7.00 in the experiment on Colo205 tumor cells.

As to `O=S(=O)(Nc1cccc(-c2nc(N3CCCCC3)sc2-c2ccnc(Nc3ccc(N4CCOCC4)c(F)c3)n2)c1)c1c(F)cccc1F` [Example 154], the pIC50 on B-Raf is > 7.00; in the experiment on SK-MEL-28 tumor cells, > 7.00; at ErbB2, < 6.00; on EGFR, < 6.00; in the experiment with Colo205 tumor cells, > 7.00.

On to `COc1cc(N2CCN(CCS(C)(=O)=O)CC2)c(C)cc1Nc1nccc(-c2sc(N)nc2-c2cccc(NS(=O)(=O)c3c(F)cccc3F)c2)n1` [Example 63], for which the pIC50 on B-Raf is 6.00 to 7.00; in the experiment with SK-MEL-28 tumor cells, < 6.00; on ErbB2 it was > 7.00; against EGFR, 6.00 to 7.00; in the experiment on Colo205 tumor cells, 6.00 to 7.00.

Take `COc1cc(N2CCC3(CC2)CCN(S(C)(=O)=O)CC3)c(C)cc1Nc1nccc(-c2sc(C(C)C)nc2-c2cccc(NS(=O)(=O)c3c(F)cccc3F)c2F)n1` [Example 160]: the pIC50 at B-Raf is > 7.00; in the experiment with SK-MEL-28 tumor cells, 6.00 to 7.00; on ErbB2, 6.00 to 7.00; against EGFR, 6.00 to 7.00; with Colo205 tumor cells it was > 7.00.

`COc1cc(C)ccc1S(=O)(=O)Nc1cccc(-c2nc(C(C)C)sc2-c2ccnc(Nc3ccc(N4CCN(C(C)=O)CC4)nc3)n2)c1` [Example 76]: the pIC50 against B-Raf is 6.00 to 7.00; in the experiment with SK-MEL-28 tumor cells, < 6.00; against ErbB2, < 6.00; against EGFR, < 6.00; with Colo205 tumor cells it was < 6.00.

Take `COc1ccc(S(C)(=O)=O)cc1Nc1nccc(-c2sc(C(C)C)nc2-c2cccc(NS(=O)(=O)c3c(F)cccc3F)c2F)n1` [Example 165]: the pIC50 against B-Raf was > 7.00; in the experiment on SK-MEL-28 tumor cells, > 7.00; against ErbB2 it was 6.00 to 7.00; on EGFR, 6.00 to 7.00; in the experiment on Colo205 tumor cells, > 7.00.

Take `COc1cc(N2CCN(CCS(C)(=O)=O)CC2)c(C)cc1Nc1nccc(-c2sc(C(C)C)nc2-c2cncc(NS(=O)(=O)c3c(F)cccc3F)c2)n1` [Example 48]: the pIC50 on B-Raf is 6.00 to 7.00; in the experiment on SK-MEL-28 tumor cells it was 6.00 to 7.00; at ErbB2 it was > 7.00; on EGFR, < 6.00; in the experiment on Colo205 tumor cells, > 7.00.

The pIC50 is the negative decadic logarithm of the IC50, by convention in mol/L.

Source of the values: patent US20110319392A1, “Thiazole Sulfonamide And Oxazole Sulfonamide Kinase Inhibitors” (priority 2009, published 2011).
